Reference: patent US20230365620A1, “CYCLIN-DEPENDENT KINASE INHIBITORS AND METHODS OF USE” (DANA-FARBER CANCER INSTITUTE, INC., priority 2018, published 2023)
pIC50: −log10 of the molar value.

Experiments:
NEK1 [1] = biological target: T1, NEK1 (Homo sapiens, UniProt Q96PY6); experiment: Dose-response analysis of NEK1; format: biochemical
T1 sequence (Q96PY6 1-1258): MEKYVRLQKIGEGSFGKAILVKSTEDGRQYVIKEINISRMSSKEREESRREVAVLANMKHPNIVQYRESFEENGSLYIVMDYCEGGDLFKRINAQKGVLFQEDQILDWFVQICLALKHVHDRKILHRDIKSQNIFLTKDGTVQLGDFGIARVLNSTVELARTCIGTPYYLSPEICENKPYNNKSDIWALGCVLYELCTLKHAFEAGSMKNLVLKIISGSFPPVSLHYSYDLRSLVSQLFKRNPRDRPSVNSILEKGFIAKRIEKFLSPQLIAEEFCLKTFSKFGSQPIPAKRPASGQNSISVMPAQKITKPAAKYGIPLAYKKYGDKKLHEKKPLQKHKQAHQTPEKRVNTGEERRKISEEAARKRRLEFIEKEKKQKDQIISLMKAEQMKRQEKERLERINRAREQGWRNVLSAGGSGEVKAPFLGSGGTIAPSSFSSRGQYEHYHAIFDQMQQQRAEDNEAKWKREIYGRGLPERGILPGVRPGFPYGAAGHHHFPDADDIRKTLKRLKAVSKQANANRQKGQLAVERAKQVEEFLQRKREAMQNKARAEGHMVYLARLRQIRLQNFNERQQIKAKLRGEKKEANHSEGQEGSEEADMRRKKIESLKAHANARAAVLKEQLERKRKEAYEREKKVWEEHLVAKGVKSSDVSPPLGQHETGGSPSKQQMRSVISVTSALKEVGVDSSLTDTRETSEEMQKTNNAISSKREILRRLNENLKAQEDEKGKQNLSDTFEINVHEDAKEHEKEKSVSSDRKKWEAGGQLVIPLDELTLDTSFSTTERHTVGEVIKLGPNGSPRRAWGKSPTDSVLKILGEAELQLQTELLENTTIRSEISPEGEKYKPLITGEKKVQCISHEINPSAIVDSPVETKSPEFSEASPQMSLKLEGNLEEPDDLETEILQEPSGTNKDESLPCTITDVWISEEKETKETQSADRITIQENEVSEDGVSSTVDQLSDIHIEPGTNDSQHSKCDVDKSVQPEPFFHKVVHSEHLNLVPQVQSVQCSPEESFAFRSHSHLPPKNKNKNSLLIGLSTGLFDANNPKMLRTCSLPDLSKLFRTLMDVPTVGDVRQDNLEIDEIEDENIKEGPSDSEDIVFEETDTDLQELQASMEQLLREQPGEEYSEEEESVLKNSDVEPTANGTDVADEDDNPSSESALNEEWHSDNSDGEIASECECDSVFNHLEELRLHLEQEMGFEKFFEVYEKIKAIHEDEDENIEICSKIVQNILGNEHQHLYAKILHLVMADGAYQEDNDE

CDK8 [2] = biological target: T2, CDK8 (Homo sapiens, UniProt P49336); experiment: LANTHASCREEN Eu Kinase Binding Assay (competitive kinase binding, Tracer displacement); design: purchased INVITROGEN; settings: displacing the Tracer from binding to the target kinase; read-out: Enzyme IC50
Protocol: The biological activities of the compounds of the present application can be assessed through a variety of methods known in the art. […] The changes in the signal produced by the reporting ligand when the compound is present relative when the compound is absent are recorded, which are calculated to provide the IC50 of the compound. Compounds of the present application were tested in a competitive kinase binding assay by using commercially available assay system. For example, LANTHASCREEN© Eu Kinase Binding Assay (INVITROGEN™) was used to measure the IC50 of the compounds of the present application in displacing the Tracer from binding to the target kinase, by following the assay protocol from INVITROGEN™.
Target sequence in this assay (P49336 whole entry): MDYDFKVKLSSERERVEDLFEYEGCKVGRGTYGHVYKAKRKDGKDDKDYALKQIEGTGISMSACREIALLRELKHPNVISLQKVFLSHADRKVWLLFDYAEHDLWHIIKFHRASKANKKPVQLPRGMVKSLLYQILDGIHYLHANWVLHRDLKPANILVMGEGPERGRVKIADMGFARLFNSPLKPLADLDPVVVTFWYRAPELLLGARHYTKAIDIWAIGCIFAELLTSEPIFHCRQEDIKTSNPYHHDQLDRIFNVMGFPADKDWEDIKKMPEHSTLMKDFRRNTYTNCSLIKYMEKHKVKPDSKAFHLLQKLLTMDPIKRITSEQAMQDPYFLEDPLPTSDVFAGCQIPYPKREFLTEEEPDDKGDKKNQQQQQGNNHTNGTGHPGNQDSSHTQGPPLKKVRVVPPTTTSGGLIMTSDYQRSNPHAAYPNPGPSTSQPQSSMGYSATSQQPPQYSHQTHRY
Target sequence in this assay (P24863 whole entry partner): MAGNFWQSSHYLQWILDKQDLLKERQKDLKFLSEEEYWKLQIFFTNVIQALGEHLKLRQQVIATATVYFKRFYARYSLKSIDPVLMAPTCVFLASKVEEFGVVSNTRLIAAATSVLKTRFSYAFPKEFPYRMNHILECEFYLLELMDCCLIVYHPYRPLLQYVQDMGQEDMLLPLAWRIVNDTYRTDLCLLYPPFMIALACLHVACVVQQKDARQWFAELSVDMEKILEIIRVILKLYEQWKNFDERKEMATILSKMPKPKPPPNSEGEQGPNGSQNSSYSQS

panel of 468 kinases = experiment: KINOMESCAN binding analysis, panel of 468 kinases; settings: 10 μM
Protocol: (§1) The KINOMESCAN® was performed with binding assays of Compound 33 against a panel of 468 kinases at a concentration of 10 μM.
(§2) To evaluate the kinase selectivity of compounds of the application, KINOMESCAN® binding analysis against a panel of 468 kinases at a concentration of 10 μM was conducted.

NEK1 [3] = biological target: T1, NEK1; experiment: KINOMESCAN binding analysis
Protocol: as §1, §2

CDK8 [4] = biological target: T2, CDK8; experiment: KINOMESCAN binding analysis
Protocol: as §1, §2
Target sequence in this assay (P49336 whole entry): as the sequence (P49336 whole entry) above

PIKFYVE = PIKFYVE (Homo sapiens, UniProt Q9Y2I7); experiment: KINOMESCAN binding analysis
Protocol: as §1, §2

CDK19 = CDK19 (Homo sapiens, UniProt Q9BWU1); experiment: KINOMESCAN binding analysis
Protocol: as §1, §2

[5] = system: phosphorylation of S727-STAT1, a known CDK8 substrate, in HepG2 cells; experiment: Western blot of pS727-STAT1 in IFNγ-treated HepG2 cells; format: cell-based; settings: 18 h with IFNγ, Compound 33 at 0.5, 1 or 5 μM, DCA at 0.1 or 1 μM
Protocol: FIG. 1 is a Western blot illustrating inhibition of phosphorylation of 5727-STAT1, a known CDK8 substrate, to form pS727-STAT1. pS727-STAT1 and total STAT1 were from HepG2 cells independently treated for 18 h with interferon gamma (IFNγ) and 0.5 μM, 1 μM, or 5 μM Compound 33, or with IFNγ and 0.1 μM or 1 μM dehydrocortistatin A (“DCA”).

CDK8 [6] = biological target: T2, CDK8; experiment: CDK8 IC50 stated for DCA; format: biochemical; design: purchased INVITROGEN
Target sequence in this assay (P49336 whole entry): as above
Target sequence in this assay (P24863 whole entry partner): as the sequence (P24863 whole entry partner) above

Chain of PIKFYVE (Q9Y2I7 whole entry): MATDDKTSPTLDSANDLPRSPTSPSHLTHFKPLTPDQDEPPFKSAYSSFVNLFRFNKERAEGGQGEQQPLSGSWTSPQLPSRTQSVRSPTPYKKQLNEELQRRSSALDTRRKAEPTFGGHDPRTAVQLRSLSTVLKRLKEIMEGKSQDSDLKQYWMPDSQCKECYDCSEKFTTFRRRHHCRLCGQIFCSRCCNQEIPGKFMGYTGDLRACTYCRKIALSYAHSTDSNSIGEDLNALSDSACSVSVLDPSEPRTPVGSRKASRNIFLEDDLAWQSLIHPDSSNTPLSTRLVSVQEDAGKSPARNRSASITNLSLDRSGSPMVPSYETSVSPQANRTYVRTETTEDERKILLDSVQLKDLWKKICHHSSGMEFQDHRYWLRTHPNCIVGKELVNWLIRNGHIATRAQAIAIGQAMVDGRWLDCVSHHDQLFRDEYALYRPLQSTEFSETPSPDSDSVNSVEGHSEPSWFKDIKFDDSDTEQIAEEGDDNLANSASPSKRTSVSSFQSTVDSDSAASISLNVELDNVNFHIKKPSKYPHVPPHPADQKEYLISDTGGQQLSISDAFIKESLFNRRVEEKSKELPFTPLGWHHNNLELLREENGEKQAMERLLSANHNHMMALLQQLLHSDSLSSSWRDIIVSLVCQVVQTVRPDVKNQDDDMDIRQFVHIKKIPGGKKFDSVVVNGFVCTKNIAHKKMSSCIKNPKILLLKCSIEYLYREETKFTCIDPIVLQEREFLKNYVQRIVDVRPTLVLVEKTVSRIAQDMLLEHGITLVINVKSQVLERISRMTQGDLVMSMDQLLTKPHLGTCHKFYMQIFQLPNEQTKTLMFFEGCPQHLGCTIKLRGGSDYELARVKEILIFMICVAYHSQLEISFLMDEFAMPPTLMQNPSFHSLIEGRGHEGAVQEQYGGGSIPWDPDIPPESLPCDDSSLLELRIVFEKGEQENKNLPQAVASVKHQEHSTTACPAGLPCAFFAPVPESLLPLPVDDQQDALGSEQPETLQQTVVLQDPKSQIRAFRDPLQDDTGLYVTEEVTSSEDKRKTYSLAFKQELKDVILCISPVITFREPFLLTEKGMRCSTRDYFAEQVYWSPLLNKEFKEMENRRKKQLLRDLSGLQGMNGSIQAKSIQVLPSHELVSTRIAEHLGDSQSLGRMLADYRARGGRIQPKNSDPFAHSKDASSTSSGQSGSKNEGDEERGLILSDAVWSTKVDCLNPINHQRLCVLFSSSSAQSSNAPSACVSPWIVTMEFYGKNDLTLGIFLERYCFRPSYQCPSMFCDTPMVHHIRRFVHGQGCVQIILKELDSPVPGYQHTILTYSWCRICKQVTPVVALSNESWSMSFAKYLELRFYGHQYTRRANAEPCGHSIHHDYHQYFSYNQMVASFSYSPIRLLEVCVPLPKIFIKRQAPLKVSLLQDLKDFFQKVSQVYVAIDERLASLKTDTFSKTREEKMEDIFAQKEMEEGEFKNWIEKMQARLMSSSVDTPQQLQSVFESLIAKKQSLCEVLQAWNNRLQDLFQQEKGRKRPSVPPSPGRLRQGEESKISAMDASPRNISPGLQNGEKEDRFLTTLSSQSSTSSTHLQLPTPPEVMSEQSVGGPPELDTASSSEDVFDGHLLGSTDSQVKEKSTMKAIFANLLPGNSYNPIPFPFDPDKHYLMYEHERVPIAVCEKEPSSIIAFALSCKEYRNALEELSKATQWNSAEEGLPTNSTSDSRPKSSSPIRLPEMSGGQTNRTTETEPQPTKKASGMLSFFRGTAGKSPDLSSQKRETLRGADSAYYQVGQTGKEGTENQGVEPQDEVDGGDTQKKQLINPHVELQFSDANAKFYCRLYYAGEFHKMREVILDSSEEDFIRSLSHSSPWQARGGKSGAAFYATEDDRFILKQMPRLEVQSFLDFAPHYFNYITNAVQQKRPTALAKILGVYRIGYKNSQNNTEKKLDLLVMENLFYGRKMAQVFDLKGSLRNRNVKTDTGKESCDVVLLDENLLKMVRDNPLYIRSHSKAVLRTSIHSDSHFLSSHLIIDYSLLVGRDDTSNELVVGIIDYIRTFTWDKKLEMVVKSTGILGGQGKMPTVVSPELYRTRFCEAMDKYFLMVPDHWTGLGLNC
Chain of CDK19 (Q9BWU1 whole entry): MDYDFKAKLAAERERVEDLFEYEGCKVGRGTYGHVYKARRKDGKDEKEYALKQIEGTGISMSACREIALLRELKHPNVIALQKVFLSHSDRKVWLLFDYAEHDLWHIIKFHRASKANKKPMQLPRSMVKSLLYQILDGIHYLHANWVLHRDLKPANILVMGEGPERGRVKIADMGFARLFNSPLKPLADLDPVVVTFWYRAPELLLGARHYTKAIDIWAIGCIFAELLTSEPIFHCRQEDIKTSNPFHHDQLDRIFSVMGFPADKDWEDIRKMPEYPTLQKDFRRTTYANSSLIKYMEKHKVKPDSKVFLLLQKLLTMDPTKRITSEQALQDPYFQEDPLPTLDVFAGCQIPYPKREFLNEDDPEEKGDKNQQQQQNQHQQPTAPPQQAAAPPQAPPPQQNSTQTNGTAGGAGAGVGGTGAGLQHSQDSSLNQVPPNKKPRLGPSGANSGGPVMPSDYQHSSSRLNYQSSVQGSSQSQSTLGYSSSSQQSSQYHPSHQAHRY

Row | SMILES | pIC50 (CDK8 [2]) | further results
1 | CN(C)[C@H]1CC[C@@]2(C)C(=CCC3[C@@H]4CC[C@H](c5ccc6ccncc6c5)[C@@]4(C)CC[C@@H]32)C1 (stereo in doubt) [Compound 33, (3S,8R,9S,10R,13S,14S)-17-(isoquinolin-7-yl)-N,N,10,13-tetramethyl-2,3,4,7,8,9,10,11,12,13,14,15,16,17-tetradecahydro-1H-cyclopenta[a]phenanthren-3-amine] | > 7.00 | pIC50 (NEK1 [1]): < 5.00; kinase selectivity (panel of 468 kinases): highly selective for CDK8 and CDK19; number of interactions greater than 90% inhibition (panel of 468 kinases): 4; inhibition at 10 µM (NEK1 [3]): > 90%; inhibition at 10 µM (CDK8 [4]): > 90%; inhibition at 10 µM (PIKFYVE): > 90%; inhibition at 10 µM (CDK19): > 90%; inhibition of S727 phosphorylation of STAT1 [5]: dose-dependent inhibition
2 | C[C@]12CC[C@H](O)CC1=CC[C@@H]1[C@@H]2CC[C@]2(C)C(c3ccc4cnncc4c3)=CC[C@@H]12 [Compound 3] | < 5.22 | –
3 | C[C@]12CC[C@H](O)CC1=CC[C@@H]1[C@@H]2CC[C@]2(C)C(c3ccc4c(N)n[nH]c4c3)=CC[C@@H]12 [Compound 5] | 5.70 to 6.15 | –
4 | C[C@]12CC[C@H](O)CC1=CC[C@@H]1[C@@H]2CC[C@]2(C)C(c3ccc4[nH]ncc4c3)=CC[C@@H]12 [Compound 6] | < 5.22 | –
5 | C[C@]12CC[C@H](O)CC1=CC[C@@H]1[C@@H]2CC[C@]2(C)C(c3ccc4cn[nH]c4c3)=CC[C@@H]12 [Compound 7] | < 5.22 | –
6 | C[C@]12CC[C@H]3[C@@H](CC=C4C[C@@H](O)CC[C@@]43C)[C@@H]1CC[C@@H]2c1ccc2ccncc2c1 [Compound 8a, (3S,8S,9S,10R,13S,14S,17S)-17-(isoquinolin-7-yl)-10,13-dimethyl-2,3,4,7,8,9,10,11,12,13,14,15,16,17-tetradecahydro-1H-cyclopenta[a]phenanthren-3-ol] | > 7.00 | –
7 | C[C@]12CC[C@H]3[C@@H](CC=C4C[C@@H](O)CC[C@@]43C)[C@@H]1CC[C@@H]2c1ccc2cnncc2c1 [Compound 9] | < 5.22 | –
8 | CN(C)[C@H]1C[C@@]23CC[C@@]4(O2)C(=CC[C@]2(C)C(c5ccc6ccncc6c5)=CC[C@H]24)C=C3[C@@H](O)[C@@H]1O [DCA, dehydrocortistatin A, reference compound] | – | inhibition of S727 phosphorylation of STAT1 [5]: dose-dependent inhibition; pIC50 (CDK8 [6]): 7.77

Now from value to compound, other results behind:

Row | pIC50 (CDK8 [2]) | SMILES | further results
9 | < 5.22 | C[C@]12CC[C@H]3[C@@H](CC=C4C[C@@H](O)CC[C@@]43C)[C@@H]1CC[C@@H]2c1ccc2[nH]ncc2c1 [Compound 12] | –
10 | < 5.22 | C[C@]12CC[C@H]3[C@@H](CC=C4C[C@@H](O)CC[C@@]43C)[C@@H]1CC[C@@H]2c1ccc2cn[nH]c2c1 [Compound 13] | –
11 | 6.70 to 7.00 | CN(C)[C@H]1CC[C@@]2(C)[C@@H](CC[C@@H]3[C@@H]2CC[C@]2(C)C(c4ccc5ccncc5c4)=CC[C@@H]32)C1 [Compound 22r, (3S,8R,9S,10S,13S,14S)-17-(isoquinolin-7-yl)-N,N,10,13-tetramethyl-2,3,4,5,6,7,8,9,10,11,12,13,14,15-tetradecahydro-1H-cyclopenta[a]phenanthren-3-amine] | –
12 | > 7.00 | CN(C)[C@H]1CC[C@@]2(C)[C@@H](CC[C@@H]3[C@@H]2CC[C@]2(C)[C@@H](c4ccc5ccncc5c4)CC[C@@H]32)C1 [Compound 23, (3S,8R,9S,10S,13S,14S,17S)-(isoquinolin-7-yl)-N,N,10,13-tetramethylhexadecahydro-1H-cyclopenta[a]phenanthren-3-amine] | –
13 | > 7.00 | CN(C)[C@@H]1CC[C@@]2(C)[C@@H](CC[C@@H]3[C@@H]2CC[C@]2(C)[C@@H](c4ccc5ccncc5c4)CC[C@@H]32)C1 [Compound 25] | –
14 | 6.70 to 7.00 | C[C@]12CC[C@H](N3CCOCC3)C[C@@H]1CC[C@@H]1[C@@H]2CC[C@]2(C)[C@@H](c3ccc4ccncc4c3)CC[C@@H]12 [Compound 34, 4-((3S,5S,8R,10S,13S,14S,17S)-17-(isoquinolin-7-yl)-10,13-dimethylhexadecahydro-1H-cyclopenta[a]phenanthren-3-yl)morpholine] | –
15 | > 7.00 | C[C@]12CC[C@H](n3ccnn3)C[C@@H]1CC[C@@H]1[C@@H]2CC[C@]2(C)[C@@H](c3ccc4ccncc4c3)CC[C@@H]12 [Compound 39, 7-((3S,8R,9S,10S,13S,14S,17S)-10,13-dimethyl-3-(1H-1,2,3-triazol-1-yl)hexadecahydro-1H-cyclopenta[a]phenanthren-17-yl)isoquinoline] | –
16 | 5.70 to 6.15 | CN[C@H]1CC[C@@]2(C)[C@@H](CC[C@@H]3[C@@H]2CC[C@]2(C)[C@@H](c4ccc5ccncc5c4)CC[C@@H]32)C1 [Compound 46, (3S,8R,9S,10S,13S,14S,17S)-17-(isoquinolin-7-yl)-N,10,13-trimethylhexadecahydro-1H-cyclopenta[a]phenanthren-3-amine] | –
17 | < 5.22 | C[C@]12CC[C@H](O)CC1=CC[C@@H]1C2CC[C@]2(C)C(c3ccc4cnccc4c3)=CC[C@@H]12 (some centres unmarked) [Compound 48] | –
